PMC10056899, “Neuroprotective and Antiherpetic Properties of Polyphenolic Compounds from Maackia amurensis Heartwood” (Molecules, 2023)
Where “and” joins values, the source holds several entries; their conditions need not be identical. Equal entries are not always repeated.

How the values were obtained:
HSV-1 = experiment: Anti-HSV-1 activity, cytopathic effect (CPE) inhibition assay in Vero cells; format: cell-based, HSV-1 strain L2
Experimental: (§1) The HSV-1 strain L2 and Vero cell culture (kidney epithelial cells of the African green monkey Chlorocebus sp.) were obtained from the N.F. Gamaleya Federal Research Centre for Epidemiology and Microbiology (Moscow, Russia). HSV-1 was grown in Vero cells, using Dulbecco′s Modified Eagle′s Medium (DMEM, Biolot, St. Petersburg, Russia) supplemented with 10% fetal bovine serum (FBS, Biolot, St. Petersburg, Russia) and 100 U/mL of gentamycin (Dalkhimpharm, Khabarovsk, Russia), at 37 °C in a CO2 incubator. In the maintenance medium, the FBS concentration was decreased to 1%.
(§2) The tested compounds were dissolved in DMSO (Sigma, St. Louis, MO, USA) at a concentration 10 mg/mL and stored at −20 °C. For cytotoxicity and anti-HSV-1 activity determination, the stock solutions were diluted with DMEM so that the final concentration of DMSO was 0.5%.
The anti-HSV-1 activity of stilbenes was evaluated using cytopathic effect (CPE) inhibition assay in Vero cells. We infected the monolayer of cells grown in 96-well plates (1 × 10^4 cells/well) with 100 µL/well of virus suspension (100 TCD50/mL) and we simultaneously treated it with stilbenes 1–6 (100 µL/well) at various concentrations (from 1 to 400 μg/mL) for one hour at 37 ◦C. After virus absorption, we removed the mixture of virus and stilbenes, washed the cells, and added the maintenance medium with 1% FBS. […] We used MTT assay to evaluate the antiviral activity of stilbenes. The viral inhibition rate (IR, %) was calculated according to Equation (3):(3) IR, %=Atv−Acv/Acd−Acv×100, where: • Atv is the absorbance of cells infected with virus and treated with a polyphenolic compound; • Acv is the absorbance of the untreated virus-infected cells; • Acd is the absorbance of control (untreated and non-infected) cells.
The selectivity index (SI) was calculated as the ratio of CC50 to IC50. Experiments were repeated three times.

[1] = DPPH radical scavenging assay; conditions: 20 min
Experimental: The DPPH (2,2-diphenyl-1-picrylhydrazyl) scavenging effect of polyphenolic compounds 1-6 from M. amurensis heartwood was evaluated as described previously in [40]. Stilbenes were added to DPPH solution in MeOH (10^−4 M) at a concentration range from 1 to 34 µM. The mixture was kept in the dark at room temperature for 20 min. Then, we measured the absorbance at 517 nm using a Shimadzu UV 1240 spectrophotometer (Shimadzu, Kyoto, Japan). The DPPH radical-scavenging effect (%) of the stilbenes was calculated using Equation (1): (1) DPPH scavenging effect, %=A0−Ax/A0×100, where: • A0 is the absorbance of DPPH solution without polyphenolic compounds (blank sample); • Ax is the absorbance of DPPH solution in the presence of different concentrations of polyphenolic compounds.
Quercetin and ascorbic acid were used as reference compounds. All experiments were performed in triplicate. The half maximal inhibitory concentration (IC50) for polyphenolic compounds was calculated by plotting the DPPH scavenging effect (%) against the concentrations of polyphenolic compounds. IC50 values are given as the mean ± SEM.

[2] = Cytotoxic activity against Neuro-2a cells (MTT assay); format: cell-based, murine; conditions: mouse, Neuro-2a neuroblastoma cells, data not shown, read-out: EC50 of cell viability reduction (cytotoxic activity)
Experimental: We purchased the murine neuroblastoma cell line Neuro-2a (CCL-131) from the American Type Culture Collection (ATCC®) (Manassas, VA, USA). We cultured Neuro-2a cells in Dulbecco′s Modified Eagle Medium (Biolot, St. Petersburg, Russia), which contained 10% fetal bovine serum (Biolot, St. Petersburg, Russia) and 1% penicillin/streptomycin (Biolot, St. Petersburg, Russia). We incubated the cells at 37 °C in a humidified atmosphere containing 5% (v/v) CO2.
We prepared the stock solutions of stilbenes in DMSO at a concentration of 10 mM. Compounds 1–6 were added to the wells of the plates in a volume of 20 μL diluted in PBS at the following final concentrations: 0.1, 1.0, and 10.0 µM (final concentration of DMSO <1%).
Neuro-2a cells (1 × 10^4 cells/well) were kept in a CO2 incubator at 37 °C for 24 h until they formed an adherent monolayer. Then, 20 μL of stilbenes solution was added to the cells. After incubation for 24 h, the medium containing the stilbenes was replaced by 100 μL of fresh DMEM medium. Then, we added 10 μL of MTT (3-(4,5-dimethylthiazol-2-yl)-2,5-diphenyltetrazolium bromide) (Sigma-Aldrich, St. Louis, MO, USA) stock solution (5 mg/mL) to each well and incubated the microplate for 4 h. […] After incubation for 18 h, we measured the absorbance of the converted dye formazan on a Multiskan FC microplate photometer (Thermo Scientific, Waltham, MA, USA) at a wavelength of 570 nm. […]

[3] = Ferric reducing antioxidant power (FRAP) assay; conditions: 4 min, pH 3.6
Experimental: The FRAP assay was carried out as described in [41]. We prepared FRAP reagent by mixing 2.5 mL of TPTZ (2,4,6-tris(2-pyridyl)-s-triazine) solution (10 mM) in 40 mM HCl and […] of FeCl3 solution (20 mM) in acetate buffer solution (300 mM, pH 3.6). Then, we added stilbenes 1–6 to 3 mL of FRAP reagent at concentrations from 1 to 34 µM. The mixture was kept in the dark at room temperature for 4 min. Then, we measured the absorbance at 595 nm using a Shimadzu UV 1240 spectrophotometer. Equation (2) was used to calculate the FRAP values of stilbenes 1–6:(2) FRAP=CFe/Cx, where: • CFe is the concentration of Fe^2+ (µM) formed in the reaction; • Cx is the concentration of polyphenolic compounds in the reacting mixture.
The concentration of Fe^2+ (µM) formed in the reaction was determined using the calibration curve obtained for different concentrations of FeSO4·7H2O.

[4] = system: PQ-treated Neuro-2a cells; experiment: Intracellular ROS level in PQ-treated cells (H2DCF-DA); format: cell-based, murine; conditions: Mus musculus, N2a, 0.1 μM (minimum studied concentration), PQ 1 mM
Experimental: After 24 h of adhesion, Neuro-2a cells (1 × 10^4 cells/well) were incubated with stilbenes (0.01–10 µM) for 1 h. After that, we added PQ (1 mM) to each well and incubated the cells for 3 h. To study ROS formation, we added 20 µL of 2,7-dichlorodihydrofluorescein diacetate solution ([…], H2DCF-DA, Molecular Probes, Eugene, OR, USA) to each well, so that the concentration was 10 µM, and kept the microplate in a CO2–incubator for additional 30 min at 37 °C.

[5] = system: PQ-treated Neuro-2a cells; experiment: Mitochondrial membrane potential in PQ-treated cells (TMRM); format: cell-based, murine; conditions: 0.1 μM
Experimental: […] Then, we added PQ (500 μM) and kept the cell suspension in a CO2-incubator for 1 h. Cells incubated without PQ and stilbenes and with PQ only were used as positive and negative control, respectively. We added the tetramethylrhodamine methyl (TMRM) (Sigma-Aldrich, St. Louis, MO, USA) solution (500 nM) to each well and kept the cells for 30 min in a CO2-incubator at 37 °C. The intensity of fluorescence was measured with a PHERAstar […] reader (BMG Labtech, Ortenberg, Germany) at λex = 540 nm and λem = 590 nm. We processed the data by MARS Data Analysis v. 3.01R2 (BMG Labtech, Ortenberg, Germany) and presented the results as percentages of the positive control value.

[6] = Cytotoxicity against Vero cells (MTT assay); format: cell-based; conditions: African green monkey (Chlorocebus sp.)
Experimental: as §1, §2
The cytotoxicity evaluation of the studied compounds was performed using the MTT assay, as described previously. In brief, confluent Vero cells in 96-well microplates (1 × 10^4 cells/well) were incubated with tested compounds at various concentrations (1–500 μg/mL) at 37 °C for 48 h (5% CO2). Untreated cells were used as controls. Then, MTT solution (methylthiazolyltetrazolium bromide, Sigma, St. Louis, MO, USA) was added to cells at a concentration of 5 mg/mL and the cells were incubated at 37 °C for 2 h. After dissolution of formazan crystals, optical densities were read at 540 nm (Labsystems Multiskan RC, Vantaa, Finland). […] [42]. Experiments were performed in triplicate and repeated three times.

Oc1cc(O)cc(/C=C/c2ccc3c(c2)O[C@H](c2cc(O)cc(O)c2)[C@@H](c2ccc(O)c(O)c2)O3)c1 [Compound 3, maackin]
IC50 (HSV-1; Human alphaherpesvirus 1, Vero, read-out: IC50 (CPE assay)): 17.6 µg/mL and 36.2 µM | SI = CC50/IC50 (HSV-1; Vero cells, HSV-1): 15.3 ± 1.9 | DPPH Scavenging Effect IC50 [1]: 1.31 ± 0.15 µg | IC50 ([1]; read-out: DPPH Scavenging Effect IC50): 2.7 ± 0.3 µM | EC50 at 24 h [2]: 87.7 µM | FRAP CFe2+(µM)/Cpolyphenolic compound (µM) [3]: 10.11 ± 0.93 CFe2+(µM)/Cpolyphenolic compound (µM) | FRAP CFe2+(µM)/Cpolyphenolic compound (μkg/mL) [3]: 20.80 ± 1.91 CFe2+(µM)/Cpolyphenolic compound (μkg/mL) | inhibition at 0.1 µM [4]: 17% | Increase of mitochondrial membrane potential compared to PQ-treated cells [5]: 16% | CC50 at 48 h [6]: 270 µg/mL and 555 µM
